Measurements: ChEMBL document CHEMBL1201862, “PubChem BioAssay data set” (2004)
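Growth conditions: 96-well plates. Treatment: test compound, 48 hours, 5 concentrations. Analysis: linear interpolation between bracketing concentrations; unreached endpoints set to highest concentration. At the GI50, growth is halved.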 Calls of active or inactive are those of the source. No stated cut-off is given here; in the data, active = GI50 up to about 1.1 µM and inactive = higher.

What was measured:
Assay in all cases: NCI-60 cell line screen, 48 h
[1] = system: NCI-H23
[2] = system: HL-60
[3] = system: NCI/ADR-RES
[4] = system: NCI-H226
[5] = system: SF-295
[6] = system: MDA-MB-435
[7] = system: A549
[8] = system: OVCAR-3
[9] = system: RXF 393
[10] = system: UACC-62
[11] = system: OVCAR-5
[12] = system: A498
[13] = system: SF-539
[14] = system: PC-3
[15] = system: SK-MEL-2
[16] = system: HT-29
[17] = system: TK-10
[18] = system: Malme-3M
[19] = system: COLO 205
[20] = system: HCT-116
[21] = system: MCF7
[22] = system: OVCAR-8
[23] = system: KM12
[24] = system: ACHN
[25] = system: MDA-MB-231
[26] = system: Hs-578T
[27] = system: NCI-H460
[28] = system: DU-145
[29] = system: SK-MEL-28
[30] = system: U-251
[31] = system: NCI-H522
[32] = system: SK-OV-3
[33] = system: SR
[34] = system: IGROV-1
[35] = system: HOP-62
[36] = system: LOX IMVI
[37] = system: HCC 2998
[38] = system: 786-0
[39] = system: M14
[40] = system: CCRF-CEM
[41] = system: SN12C
[42] = system: CAKI-1
[43] = system: HCT-15
[44] = system: EKVX
[45] = system: SK-MEL-5
[46] = system: UACC-257
[47] = system: K562
[48] = system: SNB-19
[49] = system: SF-268
[50] = system: T47D
[51] = system: BT-549
[52] = system: SW-620
[53] = system: RPMI-8226
[54] = system: UO-31

## CCOC(=O)C(Br)(C(N)=O)C1(O)OC(c2ccccc2)=C(Br)C1=O (centres undefined)
[1]
  GI50: 23.7 µM (inactive)
[2]
  GI50: 38.5 µM (inactive)
[3]
  GI50: 60.3 µM (inactive)
[4]
  GI50: 19.2 µM (inactive)
[5]
  GI50: > 100 µM (inactive)
[6]
  GI50: 30.5 µM (inactive)
[7]
  GI50: 26.2 µM (inactive)
[8]
  GI50: 25.8 µM (inactive)
[9]
  GI50: 19.3 µM (inactive)
[10]
  GI50: 27.8 µM (inactive)
[11]
  GI50: 21.1 µM (inactive)
[12]
  GI50: > 100 µM (inactive)
[13]
  GI50: 18.2 µM (inactive)
[14]
  GI50: 19.2 µM (inactive)
[15]
  GI50: 42.3 µM (inactive)
[16]
  GI50: 20.7 µM (inactive)
[17]
  GI50: 16.7 µM (inactive)
[18]
  GI50: 25.2 µM (inactive)
[19]
  GI50: 17 µM (inactive)
[20]
  GI50: 18.2 µM (inactive)
[21]
  GI50: 19.2 µM (inactive)
[22]
  GI50: 17.5 µM (inactive)
[23]
  GI50: > 100 µM (inactive)
[24]
  GI50: 17.5 µM (inactive)
[25]
  GI50: 18.4 µM (inactive)
[26]
  GI50: 50.7 µM (inactive)
[27]
  GI50: > 100 µM (inactive)
[28]
  GI50: 44.6 µM (inactive)
[29]
  GI50: 80.9 µM (inactive)
[30]
  GI50: 17.6 µM (inactive)
[31]
  GI50: 3.42 µM (inactive)
[32]
  GI50: 66.1 µM (inactive)
[33]
  GI50: 18.2 µM (inactive)
[34]
  GI50: 20.5 µM (inactive)
[35]
  GI50: 32.1 µM (inactive)
[36]
  GI50: 21.3 µM (inactive)
[37]
  GI50: 20 µM (inactive)
[38]
  GI50: 23.3 µM (inactive)
[39]
  GI50: 28.4 µM (inactive)
[40]
  GI50: 2.65 µM (inactive)
[41]
  GI50: 17.2 µM (inactive)
[42]
  GI50: 19.6 µM (inactive)
[43]
  GI50: 16.7 µM
[44]
  GI50: 23.2 µM (inactive)
[45]
  GI50: 22.6 µM (inactive)
[46]
  GI50: > 100 µM (inactive)
[47]
  GI50: 22.4 µM (inactive)
[48]
  GI50: > 100 µM (inactive)
[49]
  GI50: 22.2 µM (inactive)
[50]
  GI50: 24.3 µM (inactive)
[51]
  GI50: 19.2 µM (inactive)
[52]
  GI50: 20 µM (inactive)
[53]
  GI50: 12.4 µM (inactive)
[54]
  GI50: 21.2 µM (inactive)
